We go through 24 compounds from US11339171B2, “MDM2 inhibitors” (Gan & Lee Pharmaceuticals, priority 2017, dated 2022).

A word on the IC50: it is the midpoint of a concentration-inhibition curve. A low value points to higher potency.

SMILES strings stand for the structures.

The target of the assay is T1, MDM2 (Homo sapiens, UniProt Q00987).
T1 construct: made in house
Nature of the assay: Inhibition test of MDM2-P53 (GST-MDM2, Biotin-P53, Anti-GST-Tb, SA-XL665). In kind it is binding. The settings on record: for inhibitory effect on MDM2 compared with positive control compound HDM201: labels are Example numbers, the compounds with S-configuration are meant. Put shortly: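 HTRF-type assay using 4 nM GST-MDM2 (final), Biotin-P53, SA-XL665 and anti-GST-Tb in PBS with 0.1% BSA, 5 mM DTT and 1 mM AEBSF. Compounds in 5-fold serial dilutions over twelve points; incubation 90 min at 25° C with shaking before plate-reader read-out.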

T1 sequence (Q00987 whole entry): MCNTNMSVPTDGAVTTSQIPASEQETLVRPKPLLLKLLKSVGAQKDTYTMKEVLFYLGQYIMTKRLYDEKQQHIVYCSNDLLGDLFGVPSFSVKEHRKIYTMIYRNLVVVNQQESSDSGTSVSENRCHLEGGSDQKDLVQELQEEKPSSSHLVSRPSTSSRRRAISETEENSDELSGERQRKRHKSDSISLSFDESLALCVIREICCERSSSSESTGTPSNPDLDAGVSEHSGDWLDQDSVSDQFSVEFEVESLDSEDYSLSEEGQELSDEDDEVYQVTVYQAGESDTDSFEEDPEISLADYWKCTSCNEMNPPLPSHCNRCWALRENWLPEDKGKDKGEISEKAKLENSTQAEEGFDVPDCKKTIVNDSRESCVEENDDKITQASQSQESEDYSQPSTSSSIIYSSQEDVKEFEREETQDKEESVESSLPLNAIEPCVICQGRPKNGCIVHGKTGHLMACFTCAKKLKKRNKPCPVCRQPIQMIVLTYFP

Turning to `COc1ccncc1-c1nc2c(n1C(C)C)C1(C(=O)Nc3cc(Cl)ccc31)N(c1cc(Cl)ccc1C)C2=O` (stereo not drawn) [Example 18, 6-chloro-5′-(5-chloro-2-methylphenyl)-3′-isopropyl-2′-(4-methoxypyridin-3-yl)-3′H-spiro[dihydroindole-3,4′-pyrrolo[3,4-d]imidazole]-2,6′(5′H)-dione], the “inhibitory effect on MDM2 compared with positive control compound HDM201” value was “better”.
Regarding `COc1cc(C2CC2)ccc1-c1nc2c(n1C(C)C)[C@]1(C(=O)Nc3cc(Cl)ccc31)N(c1cc(Cl)ccc1C)C2=O` [Example R-86, (R)-6-chloro-5′-(5-chloro-2-methylphenyl)-2′-(4-cyclopropyl-2-methoxyphenyl)-3′-isopropyl-3′H-spiro[dihydroindole-3,4′-pyrrolo[3,4-d]imidazole]-2,6′(5′H)-dione], the IC50 was found to be 142 nM.
With `COc1cc(C(F)(F)F)ncc1-c1nc2c(n1C(C)C)[C@]1(C(=O)Nc3cc(Cl)ccc31)N(c1cccc(Cl)c1)C2=O` [Example R-142, (R)-6-chloro-5′-(3-chlorophenyl)-3′-isopropyl-2′-(4-methoxy-6-(trifluoromethyl)pyridin-3-yl)-3′H-spiro[dihydroindole-3,4′-pyrrolo[3,4-d]imidazole]-2,6′(5′H)-dione], the half-maximal inhibitory concentration (IC50) came to 137 nM.
`CCOc1ncc(-c2nc3c(n2C(C)C)[C@]2(C(=O)Nc4cc(Cl)ccc42)N(c2cccc(Cl)c2)C3=O)c(OC)n1` [Example R-123, (R)-6-chloro-5′-(3-chlorophenyl)-2′-(2-ethoxy-4-methoxypyrimidin-5-yl)-3′-isopropyl-3′H-spiro[dihydroindole-3,4′-pyrrolo[3,4-d]imidazole]-2,6′(5′H)-dione] displayed a concentration for half-maximal inhibition (IC50) of 116 nM. The IC50 values of the last two compounds are within 1.5-fold of each other.
Turning to `COc1cc(N)ccc1-c1nc2c(n1C(C)C)C1(C(=O)Nc3cc(Cl)ccc31)N(c1cc(Cl)ccc1F)C2=O` (stereo not drawn) [Example 66, 2′-(4-amino-2-methoxyphenyl)-6-chloro-5′-(5-chloro-2-fluorophenyl)-3′-isopropyl-3′H-spiro[dihydroindole-3,4′-pyrrolo[3,4-d]imidazole]-2,6′(5′H)-dione], the “inhibitory effect on MDM2 compared with positive control compound HDM201” value is on record as “better”.
In the case of `COc1nc(C(C)C)ncc1-c1nc2c(n1C(C)C)[C@]1(C(=O)Nc3cc(Cl)ccc31)N(c1cc(Cl)ccc1C)C2=O` [Example R-172, (R)-6-chloro-5′-(5-chloro-2-methylphenyl)-3′-isopropyl-2′-(2-isopropyl-4-methoxypyrimidin-5-yl)-3′H-spiro[dihydroindole-3,4′-pyrrolo[3,4-d]imidazole]-2,6′(5′H)-dione], the IC50 stood at 408 nM.
On the same count and under the same terms, the value for `COc1nc(OC(C)C)ncc1-c1nc2c(n1C(C)C)[C@]1(C(=O)Nc3cc(Cl)ccc31)N(c1cccc(Cl)c1)C2=O` [Example R-124, (R)-6-chloro-5′-(3-chlorophenyl)-2′-(2-isopropoxy-4-methoxypyrimidin-5-yl)-3′-isopropyl-3′H-spiro[dihydroindole-3,4′-pyrrolo[3,4-d]imidazole]-2,6′(5′H)-dione] was 1310 nM.
For `COc1cc(N)ccc1-c1nc2c(n1C(C)C)C1(C(=O)Nc3cc(Cl)ccc31)N(c1ccc(F)c(Cl)c1)C2=O` (stereo not drawn) [Example 73, 2′-(4-amino-2-methoxyphenyl)-6-chloro-5′-(3-chloro-4-fluorophenyl)-3′-isopropyl-3′H-spiro[dihydroindole-3,4′-pyrrolo[3,4-d]imidazole]-2,6′(5′H)-dione], the “inhibitory effect on MDM2 compared with positive control compound HDM201” value is recorded as “better”.
For `COc1nc(N)ncc1-c1nc2c(n1C(C)C)C1(C(=O)Nc3cc(Cl)ccc31)N(c1cc(Cl)ccc1C)C2=O` (stereo not drawn) [Example 90, 2′-(2-amino-4-methoxypyrimidin-5-yl)-6-chloro-5′-(5-chloro-2-methylphenyl)-3′-isopropyl-3′H-spiro[dihydroindole-3,4′-pyrrolo[3,4-d]imidazole]-2,6′(5′H)-dione], the “inhibitory effect on MDM2 compared with positive control compound HDM201” value is recorded as “better”.
`CCOc1cc(OC)c(-c2nc3c(n2C(C)C)[C@]2(C(=O)Nc4cc(Cl)ccc42)N(c2cc(F)cc(Cl)c2)C3=O)cn1` [Example R-139, (R)-6-chloro-5′-(3-chloro-5-fluorophenyl)-2′-(6-ethoxy-4-methoxypyridin-3-yl)-3′-isopropyl-3′H-spiro[dihydroindole-3,4′-pyrrolo[3,4-d]imidazole]-2,6′(5′H)-dione] gave a concentration for half-maximal inhibition (IC50) of 342 nM.
On the same count and under the same terms, the value for `CCN(C)c1ncc(-c2nc3c(n2C(C)C)[C@]2(C(=O)Nc4cc(Cl)ccc42)N(c2cc(Cl)ccc2C)C3=O)c(OC)n1` [Example R-119, (R)-6-chloro-5′-(5-chloro-2-methylphenyl)-2′-(2-(ethyl(methyl)amino)-4-methoxypyrimidin-5-yl)-3′-isopropyl-3′H-spiro[dihydroindole-3,4′-pyrrolo[3,4-d]imidazole]-2,6′(5′H)-dione] was 851 nM; that for `CCOc1cc(OC)c(-c2nc3c(n2C(C)C)[C@]2(C(=O)Nc4cc(Cl)ccc42)N(c2cc(Cl)ccc2F)C3=O)cn1` [Example R-98, (R)-6-chloro-5′-(5-chloro-2-fluorophenyl)-2′-(6-ethoxy-4-methoxypyridin-3-yl)-3′-isopropyl-3′H-spiro[dihydroindole-3,4′-pyrrolo[3,4-d]imidazole]-2,6′(5′H)-dione] was 1030 nM.
With `COc1cc(C#N)ccc1-c1nc2c(n1C(C)C)C1(C(=O)Nc3cc(Cl)ccc31)N(c1cccc(Cl)c1)C2=O` (stereo not drawn) [Example 128], the “inhibitory effect on MDM2 compared with positive control compound HDM201” value was “better”.
On to `COc1ncncc1-c1nc2c(n1C(C)C)[C@]1(C(=O)Nc3cc(Cl)ccc31)N(c1cc(Cl)ccc1C)C2=O` [Example R-27, (R)-6-chloro-5′-(5-chloro-2-methylphenyl)-3′-isopropyl-2′-(4-methoxypyrimidin-5-yl)-3′H-spiro[dihydroindole-3,4′-pyrrolo[3,4-d]imidazole]-2,6′(5′H)-dione], for which the midpoint of inhibition, the IC50, lay at 924 nM.
Same read-out and setting: the value for `COc1ncc(-c2nc3c(n2C(C)C)C2(C(=O)Nc4cc(Cl)ccc42)N(c2cc(Cl)ccc2C(C)C)C3=O)c(OC)n1` (stereo not drawn) [Example 156, 6-chloro-5′-(5-chloro-2-isopropylphenyl)-2′-(2,4-dimethoxypyrimidin-5-yl)-3′-isopropyl-3′H-spiro[dihydroindole-3,4′-pyrrolo[3,4-d]imidazole]-2,6′(5′H)-dione] was 11.2 nM; that for `COc1cc(OC(C)C)ncc1-c1nc2c(n1C(C)C)[C@]1(C(=O)Nc3cc(Cl)ccc31)N(c1cccc(Cl)c1)C2=O` [Example R-95, (R)-6-chloro-5′-(3-chlorophenyl)-2′-(6-isopropoxy-4-methoxypyridin-3-yl)-3′-isopropyl-3′H-spiro[dihydroindole-3,4′-pyrrolo[3,4-d]imidazole]-2,6′(5′H)-dione] was 1670 nM.
On to `CNC(=O)c1ccc(OC)c(-c2nc3c(n2C(C)C)C2(C(=O)Nc4cc(Cl)ccc42)N(c2cc(Cl)ccc2C)C3=O)c1` (stereo not drawn) [Example 21, 3-(6-chloro-5′-(5-chloro-2-methylphenyl)-3′-isopropyl-2,6′-dioxo-5′,6′-dihydro-3′H-spiro[dihydroindole-3,4′-pyrrolo[3,4-d]imidazole]-2′-yl)-4-methoxy-N-methylbenzamide], for which the “inhibitory effect on MDM2 compared with positive control compound HDM201” value is “better”.
On to `COc1nc(N(C)C)ncc1-c1nc2c(n1C(C)C)[C@]1(C(=O)Nc3cc(Cl)ccc31)N(c1cc(Cl)cnc1C)C2=O` [Example R-135, (R)-6-chloro-5′-(5-chloro-2-methylpyridin-3-yl)-2′-(2-(dimethylamino)-4-methoxypyrimidin-5-yl)-3′-isopropyl-3′H-spiro[dihydroindole-3,4′-pyrrolo[3,4-d]imidazole]-2,6′(5′H)-dione], for which the IC50 amounted to 423 nM.
Same read-out and setting: as for `COc1cc(OC(F)(F)F)ccc1-c1nc2c(n1C(C)C)[C@]1(C(=O)Nc3cc(Cl)ccc31)N(c1cccc(Cl)c1)C2=O` [Example R-120, (R)-6-chloro-5′-(3-chlorophenyl)-3′-isopropyl-2′-(2-methoxy-4-(trifluoromethoxy)phenyl)-3′H-spiro[dihydroindole-3,4′-pyrrolo[3,4-d]imidazole]-2,6′(5′H)-dione], the figure is 4780 nM; as for `COc1nc(C2CC2)ncc1-c1nc2c(n1C(C)C)[C@]1(C(=O)Nc3cc(Cl)ccc31)N(c1cccc(Cl)c1)C2=O` [Example R-122, (R)-6-chloro-5′-(3-chlorophenyl)-2′-(2-cyclopropyl-4-methoxypyrimidin-5-yl)-3′-isopropyl-3′H-spiro[dihydroindole-3,4′-pyrrolo[3,4-d]imidazole]-2,6′(5′H)-dione], 794 nM.
With `COc1cc(OC)c(-c2nc3c(n2C(C)C)C2(C(=O)Nc4cc(Cl)ccc42)N(c2cc(Cl)ccc2F)C3=O)cn1` (stereo not drawn) [Example 133, 6-chloro-5′-(5-chloro-2-fluorophenyl)-2′-(4,6-dimethoxypyridin-3-yl)-3′-isopropyl-3′H-spiro[dihydroindole-3,4′-pyrrolo[3,4-d]imidazole]-2,6′(5′H)-dione], the “inhibitory effect on MDM2 compared with positive control compound HDM201” value is given as “better”.
Turning to `COc1nc(N(C)C)ncc1-c1nc2c(n1C(C)C)C1(C(=O)Nc3cc(Cl)ccc31)N(c1cccc(Cl)c1)C2=O` (stereo not drawn) [Example 112, 6-chloro-5′-(3-chlorophenyl)-2′-(2-(dimethylamino)-4-methoxypyrimidin-5-yl)-3′-isopropyl-3′ H-spiro[dihydroindole-3,4′-pyrrolo[3,4-d]imidazole]-2,6′ (5′ H)-dione], the “inhibitory effect on MDM2 compared with positive control compound HDM201” value was “better”.
As to `COc1nc(N)ncc1-c1nc2c(n1C(C)C)[C@]1(C(=O)Nc3cc(Cl)ccc31)N(c1cc(Cl)ccc1C)C2=O` [Example R-90, (R)-2′-(2-amino-4-methoxypyrimidin-5-yl)-6-chloro-5′-(5-chloro-2-methylphenyl)-3′-isopropyl-3′H-spiro[dihydroindole-3,4′-pyrrolo[3,4-d]imidazole]-2,6′(5′H)-dione], the IC50 came out at 310 nM. In other words, the sub-micromolar range.
As to `COc1ccc(C(N)=O)cc1-c1nc2c(n1C(C)C)C1(C(=O)Nc3cc(Cl)ccc31)N(c1cc(Cl)ccc1C)C2=O` (stereo not drawn) [Example 29, 3-(6-chloro-5′-(5-chloro-2-methylphenyl)-3′-isopropyl-2,6′-dioxo-5′,6′-dihydro-3′H-spiro[dihydroindole-3,4′-pyrrolo[3,4-d]imidazole]-2′-yl)-4-methoxybenzamide], the “inhibitory effect on MDM2 compared with positive control compound HDM201” value is reported as “better”.
